“And” between values parts separate entries of the source, which are not always exact repeats. Identical values can stand only once.

The test system of the assay is D. immitis JYD-34 (macrocyclic lactone resistant isolate). Also noted: species or system Dirofilaria immitis. Particulars: in vivo.

Regarding Milbemycin oxime [MBO], the “JYD-34 heartworms among recovered worms, all seven dogs in Group 4” value is 100%; the “Number of JYD-34 Worms” value is 18 and 15 and 21 and 22 and 14 and 20. The “Percentage of JYD-34 Worms” value (po) is recorded as 100%.

The record behind these values is patent US20230313318A1, “MICR[…] METHOD OF USE THEREOF” (priority 2022, published 2023).
